From PubChem BioAssay AID624327 (Sanford-Burnham Center for Chemical Genomics, 2012)

target: Fatty acid synthase (Homo sapiens) (UniProt P49327); assay: FAS thioesterase domain inhibitors, dose response, biochemical, endpoint fluorescence intensity, uHTS hits (AID 624327); details: recombinant FAS-TE, OMFH fluorogenic substrate
Sequence (P49327 whole entry, looked up, the tested form may be a part): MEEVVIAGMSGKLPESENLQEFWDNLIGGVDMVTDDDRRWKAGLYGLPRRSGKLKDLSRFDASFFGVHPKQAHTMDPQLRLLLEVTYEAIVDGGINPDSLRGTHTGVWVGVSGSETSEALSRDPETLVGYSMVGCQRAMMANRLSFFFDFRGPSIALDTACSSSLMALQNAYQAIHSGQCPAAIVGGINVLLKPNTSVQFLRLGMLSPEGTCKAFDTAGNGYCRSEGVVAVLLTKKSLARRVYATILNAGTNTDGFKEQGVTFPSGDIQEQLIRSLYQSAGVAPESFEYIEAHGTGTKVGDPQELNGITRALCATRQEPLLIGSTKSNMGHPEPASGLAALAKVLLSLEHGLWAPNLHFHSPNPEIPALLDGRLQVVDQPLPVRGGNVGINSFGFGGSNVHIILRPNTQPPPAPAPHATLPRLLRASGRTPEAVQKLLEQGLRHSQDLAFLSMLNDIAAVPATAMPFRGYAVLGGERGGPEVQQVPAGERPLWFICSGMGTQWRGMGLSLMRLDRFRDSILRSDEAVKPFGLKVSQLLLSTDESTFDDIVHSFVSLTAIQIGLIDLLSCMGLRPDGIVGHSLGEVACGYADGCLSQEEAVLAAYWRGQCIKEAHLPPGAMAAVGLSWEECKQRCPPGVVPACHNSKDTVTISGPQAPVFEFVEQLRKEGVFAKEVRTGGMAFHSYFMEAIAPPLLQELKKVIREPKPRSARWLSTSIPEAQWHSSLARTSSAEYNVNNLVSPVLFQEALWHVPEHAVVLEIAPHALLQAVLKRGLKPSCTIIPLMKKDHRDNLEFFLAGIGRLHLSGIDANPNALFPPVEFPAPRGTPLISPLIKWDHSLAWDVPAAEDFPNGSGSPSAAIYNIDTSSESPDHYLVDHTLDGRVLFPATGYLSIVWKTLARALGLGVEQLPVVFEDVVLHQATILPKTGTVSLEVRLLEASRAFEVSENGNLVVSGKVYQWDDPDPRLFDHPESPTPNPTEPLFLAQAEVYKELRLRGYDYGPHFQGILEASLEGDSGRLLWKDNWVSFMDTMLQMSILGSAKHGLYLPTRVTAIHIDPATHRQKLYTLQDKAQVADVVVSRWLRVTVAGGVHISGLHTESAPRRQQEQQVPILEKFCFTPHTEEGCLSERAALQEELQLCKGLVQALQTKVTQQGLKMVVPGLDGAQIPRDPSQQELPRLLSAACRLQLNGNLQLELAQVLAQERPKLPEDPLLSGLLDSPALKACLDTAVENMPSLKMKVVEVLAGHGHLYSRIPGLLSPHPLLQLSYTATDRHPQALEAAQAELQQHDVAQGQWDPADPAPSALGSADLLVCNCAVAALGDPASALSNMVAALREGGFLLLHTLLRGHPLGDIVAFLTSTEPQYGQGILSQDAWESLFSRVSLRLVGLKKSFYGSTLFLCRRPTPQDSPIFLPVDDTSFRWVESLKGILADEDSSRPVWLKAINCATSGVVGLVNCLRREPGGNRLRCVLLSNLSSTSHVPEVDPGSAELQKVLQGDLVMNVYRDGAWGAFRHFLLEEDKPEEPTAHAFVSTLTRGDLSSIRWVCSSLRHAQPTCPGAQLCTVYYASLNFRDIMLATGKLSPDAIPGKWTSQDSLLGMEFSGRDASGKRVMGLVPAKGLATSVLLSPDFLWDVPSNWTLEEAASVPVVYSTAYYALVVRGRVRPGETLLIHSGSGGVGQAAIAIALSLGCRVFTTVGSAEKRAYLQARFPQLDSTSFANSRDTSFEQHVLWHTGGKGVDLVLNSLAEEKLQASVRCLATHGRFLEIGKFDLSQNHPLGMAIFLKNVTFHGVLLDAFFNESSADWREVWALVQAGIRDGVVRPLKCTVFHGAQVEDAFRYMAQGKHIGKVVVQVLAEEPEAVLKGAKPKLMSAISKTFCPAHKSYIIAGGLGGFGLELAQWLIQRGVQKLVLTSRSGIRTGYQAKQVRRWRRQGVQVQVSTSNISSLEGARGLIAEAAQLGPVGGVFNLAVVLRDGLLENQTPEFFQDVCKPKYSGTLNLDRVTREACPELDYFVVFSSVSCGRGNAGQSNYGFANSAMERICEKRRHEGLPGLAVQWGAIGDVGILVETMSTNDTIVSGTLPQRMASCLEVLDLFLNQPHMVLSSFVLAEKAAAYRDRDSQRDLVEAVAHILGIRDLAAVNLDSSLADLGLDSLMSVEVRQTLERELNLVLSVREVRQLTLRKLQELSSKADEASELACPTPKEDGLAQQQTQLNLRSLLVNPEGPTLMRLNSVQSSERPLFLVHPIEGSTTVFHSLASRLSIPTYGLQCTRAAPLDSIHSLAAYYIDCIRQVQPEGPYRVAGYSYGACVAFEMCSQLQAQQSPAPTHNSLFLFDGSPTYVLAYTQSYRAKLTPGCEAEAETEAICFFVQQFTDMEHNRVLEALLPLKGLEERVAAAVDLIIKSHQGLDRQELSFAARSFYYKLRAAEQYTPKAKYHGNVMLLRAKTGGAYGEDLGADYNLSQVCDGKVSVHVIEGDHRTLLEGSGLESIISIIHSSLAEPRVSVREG

| SMILES | IC50 |
| --- | --- |
| O=C(OCc1ccc([N+](=O)[O-])cc1)c1cc([N+](=O)[O-])ccc1N1CCOCC1 | 2.72 µM |
| Oc1ccc(Cl)cc1Sc1cc(Cl)ccc1O | 3.55 µM |
| CCCCC(=O)Nc1nc(-c2ccc(S(=O)(=O)N3CCOCC3)cc2)cs1 | 0.199 µM |
| O=S(=O)(c1ccc(-c2csc(-c3cccnc3)n2)cc1)N1CCCCC1 | 2.68 µM |
| COc1ccc(CNC(=O)/C=C/c2cc([N+](=O)[O-])ccc2OC(F)F)cc1OC | 3.26 µM |
| CCCc1cc(C(=O)Nc2cccc([N+](=O)[O-])c2)cs1 | 8.69 µM |
| O=C(Nc1nnc(SCc2ccccc2Cl)s1)c1cccc([N+](=O)[O-])c1 | 11.4 µM |
| CN(C(=O)Nc1ccc(Cl)cc1Cl)[C@H]1c2cc(Br)ccc2OC[C@H]1CO | 11 µM |
| O=C(Nc1nc(-c2ccc(S(=O)(=O)N3CCCC3)cc2)cs1)c1ccco1 | 4.68 µM |
| CCC(C)(C)C1CCC(=NNS(=O)(=O)c2ccc(C)c([N+](=O)[O-])c2)CC1 (stereo unspecified) | 17.9 µM |
| O=C(Nc1nc(-c2ccc(S(=O)(=O)N3CCCC3)cc2)cs1)C1COc2ccccc2O1 (stereo unspecified) | 1.31 µM |
| O=S(=O)(c1ccc(-c2csc(-c3cccnc3)n2)cc1)N1CCCC1 | 1.51 µM |
| COc1ccc(NC(=O)CC2C(=O)N(C)C(=S)N2Cc2cccs2)cc1 (stereo unspecified) | 15.8 µM |
| CCOC(=O)[C@]12Cc3ccccc3[C@H]1N(C1CCCCC1)C(=O)c1cc(OC)ccc12 | 8.27 µM |
| O=S(=O)(c1ccc(-c2csc(-c3cccnc3)n2)cc1)N1CCOCC1 | 2.14 µM |
| CCN(CC(=O)NCc1cccs1)S(=O)(=O)c1ccc([N+](=O)[O-])cc1 | 17.7 µM |
| O=C(CC(c1ccccc1)c1ccccc1)NCC(O)c1ccc([N+](=O)[O-])cc1 (stereo unspecified) | 13.5 µM |
| Cc1cccc(N2CCN(C(=O)CNC(=O)c3cccc([N+](=O)[O-])c3)CC2)c1C | 1.52 µM |
| O=C(C[C@H]1C[C@H](C(=O)N2CCOCC2)[C@@]2(CCC3CCCC3)c3[nH]c4cc(-c5ccco5)ccc4c3CCN2C1=O)NCCc1ccccn1 | 6.97 µM |
| CC1(C(=O)NS(=O)(=O)c2ccc(C#N)cc2)CCN1C(=O)c1ccc(C2CCCCC2)cc1 (stereo unspecified) | 5.24 µM |
| O=S(=O)(c1ccc(-c2csc(Nc3ccc(F)cc3)n2)cc1)N1CCCC1 | 14.8 µM |

| SMILES | IC50 |
| --- | --- |
| CNS(=O)(=O)c1ccc2c(c1)C(=O)c1cc(S(=O)(=O)NC)ccc1CC2 | 0.861 µM |
| CN(C)S(=O)(=O)c1ccc(-c2csc(-c3cccnc3)n2)cc1 | 5.21 µM |
| O=C(COc1ccccc1)Nc1nc(-c2ccc(S(=O)(=O)N3CCOCC3)cc2)cs1 | 0.417 µM |
| O=C(COc1ccc2c(-c3ccccc3)cc(=O)oc2c1)N[C@@H](Cc1c[nH]c2ccc(O)cc12)C(=O)O | 6.86 µM |
| COc1ccc2cc3cc(C(=O)N4CC(C)CC(C)C4)oc3nc2c1 (stereo unspecified) | 3.85 µM |
| Cc1ccc(NC(=O)NNC(=O)Cn2nc(-c3ccccc3)c(-c3ccccc3)c(C#N)c2=O)cc1 | 4.69 µM |
| COc1ccc(/C=C(\NC(=O)c2ccc([N+](=O)[O-])cc2)C(=O)NCCN2CCOCC2)cc1 | 5.25 µM |
| COc1ccccc1C(=O)Nc1nc(-c2ccc(S(=O)(=O)N3CCOCC3)cc2)cs1 | 11.8 µM |
| COC(=O)c1cc(C(=O)NC(C)C2CC3CCC2C3)cc([N+](=O)[O-])c1 (stereo unspecified) | 11.6 µM |
| CC(C)(C)OC(=O)NCCCC[C@H](NC(=O)c1nc[nH]c1C(=O)NC1CCN(C(=O)OC(C)(C)C)CC1)C(=O)OC(C)(C)C | 1.56 µM |
| CCn1c(=O)c([N+](=O)[O-])c(N2CCN(Cc3ccc4c(c3)OCO4)CC2)c2ccccc21 | 1.83 µM |
| COCc1cc(C)nc(SCC[N+](C)(C)CC(=O)Nc2ccccc2)c1C#N | 12.3 µM |
| O=C(CN1C(=O)c2cccc([N+](=O)[O-])c2C1=O)N1CCc2ccccc2C1 | 9.44 µM |
| O=C(c1ccc(Cl)c([N+](=O)[O-])c1)N1CCN(c2ccccc2)CC1 | 12 µM |
| CCCC(C)c1nnc(NC(=O)c2cc(C(=O)OC)cc([N+](=O)[O-])c2)s1 (stereo unspecified) | 7.12 µM |
| CC(C)(C)c1nc2scc(-c3cccs3)c2c(=O)o1 | 3.39 µM |
| CC(C)(C)OC(=O)NCCCC[C@H](NC(=O)c1nc[nH]c1C(=O)NCC(=O)OCc1ccccc1)C(=O)OC(C)(C)C | < 0.16 µM |
| N/C(=N\OC(=O)CCCc1ccccc1)c1cccc([N+](=O)[O-])c1 | 12 µM |
| Cc1cc(C(=O)N/N=C/c2cc([N+](=O)[O-])cc(C)c2O)n[nH]1 | 11.7 µM |
| CCc1nc2c(OCc3ccc(C(F)(F)F)cc3)cccn2c1N(C=O)Cc1ccc(OC)cc1 | 9.2 µM |
